The assay addresses T1, DYRK1A (Homo sapiens, UniProt Q13627).
T1 construct: purchased Thermo Fisher Scientific (Life Technologies) SelectScreen
Kind of assay: SelectScreen Z'LYTE. Format: biochemical. A digest of the protocol: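 NU5455 was profiled across the SelectScreen Broad panel of kinase activity and binding assays. Z'LYTE reactions such as CSF1R ran at apparent Km ATP, while the Adapta CAMK1 assay used ATP listed as 10. Values are given as percent.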

With `CN(C(=O)CN1CCOCC1)c1ccc2sc3c(-c4cccc5c(=O)cc(N6CC7CCC(C6)O7)oc45)cccc3c2c1` [NU5455], the inhibition at 1 µM came to 6.4%.

The inhibition is the drop in the measured response relative to a control, in per cent. A high value points to strong suppression.

The record behind these values is PMC6934184, “Selective DNA-PKcs inhibition extends the therapeutic index of localized radiotherapy and chemotherapy” (The Journal of Clinical Investigation, 2019).
